Data from patent US9750746B2 (priority 2013, dated 2017).
Entries after “also recorded” stand apart in the source; their conditions may differ.

Columns and labels:
σ1 = σ1 (Homo sapiens, UniProt Q99720); details: believed to bind; cited from earlier work
[1] = tested on: muscarinic M1-M4 receptors; details: cited from earlier work
sodium channel site 2 = details: screening profile; cited from earlier work
Aβ25-35 treated mice [2] = assay: lipid peroxidation in the hippocampus, Aβ25-35 treated mice; format: in vivo, Male Swiss OF-1 mice; details: hydrochloride
Protocol: Administration schedule: mice received ANAVEX2-73 (0.1-1 mg/kg i.p.) once-a-day between days −7 and −1 and Aβ25-35 (9 nmol i.c.v.) at day 0. Animals were examined between days 7 and 9. Their brain dissected out and assessed for lipid peroxidation (LPO) at day 10.
Administration schedule: mice received Aβ25-35 (9 nmol i.c.v.) at day 0 and ANAVEX2-73 (0.1, 0.3 mg/kg i.p.) once-a-day between days 7 and 13. Animals were examined between days 14 and 16. Their brain dissected out and assessed for lipid peroxidation (LPO) at day 17.
(§1) Male Swiss OF-1 mice (Depré, St Doulchard, France), aged 7-9 weeks and weighing 32±2 g were used in this study. Animals were housed in plastic cages in groups. They had free access to food and water, except during behavioral experiments, and they were kept in a regulated environment (23±1° C., 40-60% humidity) under a 12 h light/dark cycle (light on at 07:00 am). Experiments were carried out between 09:00 am and 05:00 pm, in an experimental room within the animal facility. Mice were habituated 30 min before each experiment. Animal procedures were conducted in adherence with the EU Directive 86-609.
Tetrahydro-N,N-dimethyl-2,2-diphenyl-3-furanmethanamine hydrochloride (ANAVEX2-73) was synthesized in the laboratory (Anavex Life Sciences, Greece). […] Drugs were solubilized in physiological saline solution and administered intraperitoneally (i.p.) in a volume of 100 μl per 20 g body weight. The amyloid-β[25-35] (Aβ25-35) and scrambled β25-35 (Sc.Aβ) peptides from Genepep (France) were solubilized in distilled water at 3 mg/ml and stored at 20° C. until use. Peptides were aged at 37° C. for 4 days and injected i.c.v. (3 μl per mouse).
Mouse hippocampus was homogenized in cold methanol, centrifuged at 1,000 g 5 min and supernatant collected. Homogenate was added to a solution of FeSO4 1 mM, H2SO4 0.25 M, xylenol orange 1 mM and incubated for 30 min at RT. Absorbance was measured at 580 nm (A5801), and 10 μl of cumene hydroperoxide (CHP) 1 mM was added and incubated for 30 min at RT. Absorbance was measured at 580 nm (A5802). Lipid peroxidation was determined as CHP equivalents: CHP eq.=A5801/A5802×[CHP (nmol)]×dilution, and expressed as percentage of the Sc.Aβ/V-treated group value.

Aβ25-35 treated mice [3] = assay: step-through passive avoidance, Aβ25-35 treated mice; format: in vivo, Male Swiss OF-1 mice; details: hydrochloride
Protocol: as §1
(§2) Donepezil (E2020) was from Eisai Tsukuba Research Laboratories (Tsukuba, Japan) and memantine was from Sigma-Aldrich (St Quentin-Fallavier, France). Drugs were solubilized in physiological saline solution and administered intraperitoneally (i.p.) in a volume of 100 μl per 20 g body weight. […] (Aβ25-35) and scrambled β25-35 (Sc.Aβ) peptides from Genepep (France) were solubilized in distilled water at 3 mg/ml and stored at 20° C. until use. Peptides were aged at 37° C. for 4 days and injected i.c.v. (3 μl per mouse).
(§3) Contextual long-term memory was measured using the step-through type passive avoidance test. During training, animals were placed in the white compartment of the two-compartment apparatus. The step-through latency to enter the dark compartment was recorded and mice received an electric shock (0.1 mA, 3 s). During the retention session, performed 24 h after training, the step-through latency to enter the dark compartement and escape latency, to re-exit, were recorded.

Aβ25-35 treated mice [4] = assay: combination studies in the Aβ25-35 model in mice, all parameters examined; format: in vivo, Male Swiss OF-1 mice; details: for minimal active dose: each drug, Aβ25-35 model in mice, ip; for efficacy of the drug alone in the combination studies with memantine: single drug, once 20 min before Aβ25-35
Protocol: (a) Administration schedule, (b) Y-maze test; (c) passive avoidance response. Administration schedule: mice received ANAVEX2-73 (0.1, 0.3 mg/kg i.p.) and/or donepezil (0.25, 0.5 mg/kg i.p.) once 20 min before Aβ25-35 (9 nmol i.c.v.) at day 0. Animals were examined between days 7 and 9.
(a) Administration schedule, (b) Y-maze test; (c) passive avoidance response. Administration schedule: mice received ANAVEX2-73 (0.1, 0.3 mg/kg i.p.) and/or memantine (0.5, 1 mg/kg i.p.) once 20 min before Aβ25-35 (9 nmol i.c.v.) at day 0. Animals were examined between days 7 and 9.
The spontaneous alternation (YMT) and passive avoidance (PAT) responses are shown. […] The 100% protection level represents the Sc.Aβ/V group and the 0% level, the Aβ25-35/V group. Only the data with the lowest doses tested are shown.
as §1, §2
(§4) Spatial working memory was examined through the measure of spontaneous alternation performance in the Y-maze. Animals were allowed to explore the Y-shaped maze during 8 min and the number of alternations (consecutive exploration of the 3 arms) and total number of arms entered was recorded.
as §3

Aβ25-35 treated mice [5] = details: cited from earlier work
σ2 sites = σ2 sites (Homo sapiens, UniProt Q5BJF2); details: reported binding analyses; cited from earlier work
Aβ25-35 treated mice [6] = assay: spontaneous alternation in the Y-maze, Aβ25-35 treated mice; format: in vivo, Male Swiss OF-1 mice; details: hydrochloride
Protocol: Administration schedule: mice received ANAVEX2-73 (0.1-1 mg/kg i.p.) once-a-day between days −7 and −1 and Aβ25-35 (9 nmol i.c.v.) at day 0. Animals were examined between days 7 and 9.
Administration schedule: mice received Aβ25-35 (9 nmol i.c.v.) at day 0 and ANAVEX2-73 (0.1, 0.3 mg/kg i.p.) once-a-day between days 7 and 13. Animals were examined between days 14 and 16.
Administration schedule: mice received ANAVEX2-73 (0.1, 0.3 mg/kg i.p.) and/or donepezil (0.25, 0.5 mg/kg i.p.) once 20 min before Aβ25-35 (9 nmol i.c.v.) at day 0. Animals were examined between days 7 and 9.
Administration schedule: mice received ANAVEX2-73 (0.1, 0.3 mg/kg i.p.) and/or memantine (0.5, 1 mg/kg i.p.) once 20 min before Aβ25-35 (9 nmol i.c.v.) at day 0. Animals were examined between days 7 and 9.
as §1
Donepezil (E2020) was from Eisai Tsukuba Research Laboratories (Tsukuba, Japan) and memantine was from Sigma-Aldrich (St Quentin-Fallavier, France). Drugs were solubilized in physiological saline solution and administered intraperitoneally (i.p.) in a volume of 100 μl per 20 g body weight. The amyloid-β[25-35] (Aβ25-35) and scrambled β25-35 (Sc.Aβ) peptides from Genepep (France) were solubilized in distilled water at 3 mg/ml and stored at 20° C. until use. Peptides were aged at 37° C. for 4 days and injected i.c.v. (3 μl per mouse).
as §4

[7] = delayed administration: 0.3 mg/kg ip (FIG. 2: 0.1, 0.3) once a day day 7 to 13 after Aβ25-35, measured 14 days after Aβ25-35, 0.3 mg/kg
[8] = early administration: 0.1, 0.3 mg/kg ip (FIG. 1: 0.1-1) once a day day -7 to -1 before Aβ25-35 (day 0), 7 days after Aβ25-35
[9] = administered before the Aβ25-35 peptide
[10] = mice one week after icv Aβ25-35 (Villard et al. 2011)

σ1, sequence (Q99720 whole entry): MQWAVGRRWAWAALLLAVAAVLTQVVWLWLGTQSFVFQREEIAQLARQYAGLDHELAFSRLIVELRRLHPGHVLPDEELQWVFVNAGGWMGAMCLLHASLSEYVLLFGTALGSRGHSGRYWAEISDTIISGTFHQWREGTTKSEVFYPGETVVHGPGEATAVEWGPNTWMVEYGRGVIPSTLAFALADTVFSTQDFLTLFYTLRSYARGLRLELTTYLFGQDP
σ2 sites, sequence (Q5BJF2 whole entry): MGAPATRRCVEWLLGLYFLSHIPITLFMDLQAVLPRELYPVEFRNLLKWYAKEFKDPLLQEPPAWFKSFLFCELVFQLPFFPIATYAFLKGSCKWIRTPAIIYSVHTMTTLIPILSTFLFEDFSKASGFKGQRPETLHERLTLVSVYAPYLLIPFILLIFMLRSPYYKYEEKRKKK

CN(C)CC1CCOC1(c1ccccc1)c1ccccc1.Cl (stereo not shown) [ANAVEX2-73, Tetrahydro-N,N-dimethyl-2,2-diphenyl-3-furanmethanamine hydrochloride]
affinity for sigma-1 receptors (σ1): low micromolar range | affinity for muscarinic acetylcholine receptors ([1]; believed to bind): low micromolar range | IC50 ([1]; screening profile, range over M1-M4): 3.3 to 5.2 µM | IC50 (sodium channel site 2): 5.1 µM | Aβ25-35-induced lipid peroxidation increase (toxicity) (Aβ25-35 treated mice [2]; [7]): significant attenuations; also recorded: effective | Aβ25-35-induced lipid peroxidation in the hippocampus (toxicity) (Aβ25-35 treated mice [2]; [8]): significantly prevented; also recorded: blocked | Aβ25-35-induced memory deficits, passive avoidance response (Aβ25-35 treated mice [3]; [7]): significant attenuations; also recorded: effective | Aβ25-35-induced memory deficits, passive avoidance response (Aβ25-35 treated mice [3]; [8]): significantly prevented; also recorded: blocked | minimal active dose (Aβ25-35 treated mice [4]): 0.1 mg/kg | efficacy of the drug alone in the combination studies with memantine (Aβ25-35 treated mice [4]): therapeutic efficacy | Aβ25-35-induced P-Akt decrease (Aβ25-35 treated mice [5]; Lahmy et al. 2013): blocked | Aβ25-35-induced P-GSK-3β increase (Aβ25-35 treated mice [5]; Lahmy et al. 2013): blocked | dose preventing hippocampal cell loss (Aβ25-35 treated mice [5]; [9]): 0.3 to 1 mg/kg | dose preventing oxidative stress (Aβ25-35 treated mice [5]; [9]): 0.3 to 1 mg/kg | dose preventing the appearance of Aβ25-35-induced learning deficits (Aβ25-35 treated mice [5]; [9]): 0.03 mg/kg | hyperphosphorylation of Tau on pathological epitopes (AT-100 clone) (Aβ25-35 treated mice [5]; in the dose-range tested): attenuated | hyperphosphorylation of Tau on physiological epitopes (AT-8 antibody clone) (Aβ25-35 treated mice [5]; in the dose-range tested): attenuated | caspases induction (Aβ25-35 treated mice [5]; [10]): attenuating | cellular loss (Aβ25-35 treated mice [5]; [10]): attenuating | learning and memory deficits (Aβ25-35 treated mice [5]; [10]): attenuating | oxidative stress (Aβ25-35 treated mice [5]; [10]): attenuating | Aβ25-35-induced endogenous Aβ1-42 seeding (Aβ25-35 treated mice [5]; mouse, in vivo): decreasing | reversing the learning impairments (Aβ25-35 treated mice [5]; one week after icv injection of Aβ25-35 peptide): effective | affinity for σ2 sites (σ2 sites): no affinity | Aβ25-35-induced memory deficits, spontaneous alternation in the Y maze (Aβ25-35 treated mice [6]; [7]): significant attenuations; also recorded: effective | Aβ25-35-induced memory deficits, spontaneous alternation in the Y maze (Aβ25-35 treated mice [6]; [8]): significantly prevented; also recorded: blocked

CC12CC3CC(C)(C1)CC(N)(C3)C2 [memantine, Memantine, reference compound]
efficacy of the drug alone in the combination studies with memantine (Aβ25-35 treated mice [4]): therapeutic efficacy

Donepezil [reference compound]
minimal active dose (Aβ25-35 treated mice [4]): 0.25 mg/kg
